Measurements as given in patent US20060166360A1, “Compositions, solutions, and methods used for transplantation” (The General Hospital Corporation, priority 2002, published 2006).
“Also recorded” adds a separate entry of the source.

Key:
[1] = system: transplanted fatty livers; assay: Histology of transplanted fatty livers; format: in vivo, rat; conditions: 3 hours after transplantation, compared to Sham group livers
Protocol: (§1) Donor animals were divided into three groups; heat shock preconditioning (HPc) group, sham HPc (Sham) group, and gadolinium chloride (GdCl3) group. In the HPc group, rats were anesthetized and placed in a waterproof bag that was then immersed in a 43° C. water bath to elevate the core body temperature (measured via a rectal digital thermometer) to 42-42.5° C. Animals were maintained at that temperature for 10 min and then removed from the warm bath. Animals then received 10 ml/kg intraperitoneal saline injection and were allowed to recover with free access to food and water. Animals in the Sham and GdCl3 groups underwent the same procedures except that they were immersed in a 37° C. bath (sham HPc). In the GdCl3 group, Kupffer cell deactivation was achieved by two 20 mg/kg GdCl3 (Sigma, St. Louis, Mo.) intravenous injection 48 and 24 hours before donor liver harvesting. In the Sham and HPc groups, sterile nonpyrogenic saline was used as instead of GdCl3 solution. Donor livers were harvested 24 hours after HPc or sham HPc. […]
(§2) Isogenic orthotopic liver transplantation was performed as described by Kamada and Calne (Kamada et al., Transplantation 28:47-50, 1979). […] For survival studies, the animals were returned to standard housing facilities and monitored for up to one week. […]

recipient rats = assay: Survival of recipient rats after fatty liver transplantation; format: in vivo, rat; conditions: up to 1 week after transplantation, vs Sham group
Protocol: as §1, §2

[2] = system: IL-12p70, TNF-α and IL-10; assay: Serum cytokine levels (ELISA) after fatty liver transplantation; format: in vivo, rat; conditions: donor GdCl3 pretreatment
Protocol: as §1, with “harvesting.” for “harvesting. In the Sham and HPc groups, sterile nonpyrogenic saline was used as instead of GdCl3 solution. Donor livers were harvested 24 hours after HPc or sham HPc.”
as §2
(§3) To assess liver injury, alanine aminotransferase (ALT) was measured in serum samples using a commercially available kit (Sigma). TNF-α, IL-10, IL-4, IL-12, and IFN-γ levels in serum and cell culture supernatant were determined by Enzyme-linked immunosorbent assay (ELISA). […]

IFN-γ mRNA = assay: RT-PCR of IFN-γ mRNA in purified liver T cells after transplantation; format: in vivo, rat; conditions: 24 hours after transplantation; donor GdCl3 pretreatment
Protocol: (§4) Donor animals were divided into three groups; heat shock preconditioning (HPc) group, sham HPc (Sham) group, and gadolinium chloride (GdCl3) group. In the HPc group, rats were anesthetized and placed in a waterproof bag that was then immersed in a 43° C. water bath to elevate the core body temperature (measured via a rectal digital thermometer) to 42-42.5° C. Animals were maintained at that temperature for 10 min and then removed from the warm bath. Animals then received 10 ml/kg intraperitoneal saline injection and were allowed to recover with free access to food and water. Animals in the Sham and GdCl3 groups underwent the same procedures except that they were immersed in a 37° C. bath (sham HPc). In the GdCl3 group, Kupffer cell deactivation was achieved by two 20 mg/kg GdCl3 (Sigma, St. Louis, Mo.) intravenous injection 48 and 24 hours before donor liver harvesting. In the Sham and HPc groups, sterile nonpyrogenic saline was used as instead of GdCl3 solution. Donor livers were harvested 24 hours after HPc or sham HPc. In some experiments, rats were pretreated with 5 mg/kg i.m. Cyclosporine A (CyA; Sigma) 6 hours before donor liver harvesting.
Three hours or 24 hours after liver transplantation, transplanted liver were perfused with sterile PBS through the portal vein to wash out all remaining peripheral blood and then meshed with stainless steel mesh. […]

HSP72 and HO-1 = assay: Western blot of HSP72 and HO-1 in hepatocytes, CD4+ and CD8+ T cells of donor fatty liver; format: in vivo, rat; conditions: at time of harvesting; GdCl3 20 mg/kg i.v. 48 and 24 hours before harvesting
Protocol: as §4
Donor rats were sacrificed up to 240 hours after HPc. […] Protein signals were visualized by chemiluminescence (Pierce, Rockford, Ill.) and recorded on a GS282 Scanner (BioRad, Hercules, Calif.).

[3] = system: liver CD4+ and CD8+ T cells; assay: Flow cytometry of liver T cells after transplantation; format: in vivo, rat; conditions: for CD3+CD4+ relative number of T cells in the liver / CD3+CD8+ relative number of T cells in the liver: mean ± SD
Protocol: as §4
Three hours or 24 hours after liver transplantation, transplanted liver were perfused with sterile PBS through the portal vein to wash out all remaining peripheral blood and then meshed with stainless steel mesh. After the coarse pieces were removed by centrifugation at 50 g for 1 min, the cell suspensions were again centrifuged, resuspended in 8 mL of 45% Percoll (Sigma), and layered on 5 mL of 67.5% Percoll. The gradients were centrifuged at 600 g at 20° C. for 20 min. Lymphocytes at the interface were harvested and washed twice with PBS. CD4^+ or CD8^+ T cells were purified by Rat T cell CD4 or CD8 column kit (R&D systems, Minneapolis, […].) from the harvested liver lymphocytes. The purity of sorted cells was more than 95%.
For 3-color analysis, liver lymphocytes were incubated with saturating amounts of phycoerythrin-conjugated anti-rat CD3α mAb (Pharmingen, San Diego, Calif.) and fluorescein isothiocyanate-conjugated anti-rat CD4 mAb (Pharmingen) for 30 min. Cells were analyzed with a FACSCalibur flow cytometer (Becton Dickinson, San Jose, Calif.). We carefully gated cells by forward and side light scattering for the liver lymphocytes. The data were analyzed using CyQuest software (Becton Dickinson).

liver CD4+ T cells = assay: IFN-γ production by liver CD4+ T cells on anti-CD3 mAb-coated plates (ELISA); format: cell-based, rat; conditions: 24 hours after transplantation; donor GdCl3 pretreatment
Protocol: as §4
Liver lymphocytes were obtained by the same method previously described. […] IFN-γ and IL-4 levels in the culture supernatants were determined by ELISA.

[4] = system: liver I/R injury in steatotic liver transplantation; assay: Serum ALT after fatty liver transplantation; format: in vivo, rat; conditions: donor GdCl3 pretreatment
Protocol: as §4
Isogenic orthotopic liver transplantation was performed as described by Kamada and Calne (Kamada et al., Transplantation 28:47-50, 1979). Donor livers were harvested 3, 6, 24, 48, or 72 hours after HPc. Briefly, the bile duct was cannulated with a short intraluminal polyethylene stent. […] The infrahepatic and suprahepatic vena cava, including part of the diaphragm, were transected. […] For survival studies, the animals were returned to standard housing facilities and monitored for up to one week. […]
as §3

[5] = system: intrahepatic neutrophil accumulation; assay: Myeloperoxidase content of liver tissue (neutrophil accumulation) after transplantation; format: in vivo, rat
Protocol: as §1, with “HPc).” for “HPc). In the GdCl3 group, Kupffer cell deactivation was achieved by two 20 mg/kg GdCl3 (Sigma, St. Louis, Mo.) intravenous injection 48 and 24 hours before donor liver harvesting. In the Sham and HPc groups, sterile nonpyrogenic saline was used as instead of GdCl3 solution. Donor livers were harvested 24 hours after HPc or sham HPc.”
as §2
The presence of myeloperoxidase (MPO), enzyme specific for neutrophil (and some macrophages), was used as an index of intrahepatic neutrophil accumulation. […] The change in absorbance was measured by spectrophotometry at 450 nm. One unit of MPO activity was defined as the quantity of enzyme degrading 1 μM peroxide per minute at 25° C. per gram of tissue.

steatotic hepatocytes = assay: Defatting of steatotic cultured hepatocytes with defatting media; format: cell-based, rat; conditions: for effect on the defatting process (fat reduction): agent added in high insulin containing media; for effect on the defatting process (lipid removal): agent added in low insulin-containing medium
Protocol: It has previously been shown that collagen-sandwiched adult rat hepatocytes which are seeded and maintained in standard hepatocyte culture medium and then exposed to either rat or human plasma become severely steatotic within 24 hours with a concomitant reduction in liver-specific functions (Matthew et al., Biotechnol. Bioeng. 51: 100-111, 1995; Stefanovich et al., J. Surg. Res. 66: 57-63, 1996).
In the next set of experiments, we induced steatosis in hepatocytes by exposing them to high insulin levels followed by plasma for 2 days, and attempted to defat them using the following conditions: plasma supplemented with amino acids and low insulin levels; culture medium containing high insulin ([…]); culture medium containing low insulin (50 μU/mL) levels. We then measured the fraction of remaining triglycerides after 1 and 2 days of treatment. […] The triglyceride removal kinetic data in Table 2 was used to calculate a defatting rate for each defatting condition. For this purpose, the fraction of initial triglyceride remaining was plotted as a function of time on a semi-log plot, which yielded linear curves (not shown). The slopes of these lines, which correspond to the first order rate of decay or triglyceride clearance from the cells during defatting, are shown in Table 2 for each defatting condition tested. From these values, we can predict the fraction of intracellular lipid remaining after any treatment time using the simple equation: Triglyceride Fraction Remaining=100e^−[RateConstant][TreatmentTime] (equation 1)

| Compound | hemorrhagic injury (histology) [1] | recipient survival rate (recipient rats) | serum IL-12, TNF-α and IL-10 levels ([2]; 3 hours after transplantation) | serum TNF-α levels ([2]; 24 hours after transplantation) | expression level of IFN-γ mRNA in isolated CD3+ CD4+ cells (IFN-γ mRNA) | expression level of IFN-γ mRNA in isolated CD3+ CD8+ cells (IFN-γ mRNA) | HSP72 and HO-1 expression in hepatocytes, CD4+ and CD8+ T cells (HSP72 and HO-1) | CD3+CD4+ relative number of T cells in the liver ([3]; 3 hr after transplantation) | CD3+CD8+ relative number of T cells in the liver ([3]; 3 hr after transplantation) | CD3+CD4+ relative number of T cells in the liver ([3]; 24 hr after transplantation) | CD3+CD8+ relative number of T cells in the liver ([3]; 24 hr after transplantation) | numbers of CD3+ CD8+ cells in the liver between groups ([3]; any stage following transplantation) | IFN-γ production by liver CD4+ T cells (liver CD4+ T cells) | serum ALT levels ([4]; 3 hours after transplantation, 12 hours cold preservation) | liver injury ([4]; 24 hours after transplantation) | protection against I/R injury by phase ([4]; acute (3 hours) and subacute (24 hours) phase) | MPO levels of liver tissue ([5]; 3 hours after transplantation) | MPO levels of liver tissue / neutrophil accumulation ([5]; 24 hours after transplantation) | effect on the defatting process (fat reduction) (steatotic hepatocytes) | effect on the defatting process (lipid removal) (steatotic hepatocytes) |
| --- | --- | --- | --- | --- | --- | --- | --- | --- | --- | --- | --- | --- | --- | --- | --- | --- | --- | --- | --- | --- |
| [Cl][Gd]([Cl])[Cl] [GdCl3, gadolinium chloride] | reduced hemorrhagic injury | no significant difference; also recorded: did not improve the recipient survival rate | moderated the initial increase in IL-12, TNF-α, and IL-10 significantly; also recorded: suppressed; also recorded: prevented the serum release of IL-12, TNF-α, and IL-10 | not significantly different from that of liver controls | much higher than that from HPc group | remained low in all three groups | neither HSP72 nor HO-1 was detected | 8.4 ± 2.7 ×10^5 | 4.2 ± 1.2 ×10^5 | 7.2 ± 2.2 ×10^5 | 5.6 ± 2.3 ×10^5 | no difference | did not suppress activation of or IFN-γ production | significantly lower than that of Sham group | did not suppress liver injury | only protected I/R injury in the acute phase | almost similar with no significant difference | no difference between the Sham group and the GdCl3-treated group; also recorded: did not suppress liver injury or neutrophil accumulation |  |  |
| leptin |  |  |  |  |  |  |  |  |  |  |  |  |  |  |  |  |  |  | Some fat-reducing effects were seen | did not further enhance lipid removal |
| hepatocyte growth factor |  |  |  |  |  |  |  |  |  |  |  |  |  |  |  |  |  |  | Some fat-reducing effects were seen | did not further enhance lipid removal |
